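Growth conditions: 96-well plates. Treatment: test compound, 48 hours, 5 concentrations. Analysis: linear interpolation between bracketing concentrations; unreached endpoints set to highest concentration. GI50 = concentration required for 50% inhibition of growth. TGI denotes the concentration required for complete inhibition of growth.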
Key:
Assay in all cases: NCI anticancer screen, dose series, 48 h
KM12 colon = test system: KM12 colon
NCI-H522 lung = test system: NCI-H522 lung
NCI-H23 lung = test system: NCI-H23 lung
SF-268 CNS = test system: SF-268 CNS
OVCAR-4 ovarian = test system: OVCAR-4 ovarian
SK-MEL-28 melanoma = test system: SK-MEL-28 melanoma
SF-295 CNS = test system: SF-295 CNS
SNB-19 CNS = test system: SNB-19 CNS
HOP-92 NSCLC = test system: HOP-92 NSCLC
MDA-MB-231 breast = test system: MDA-MB-231 breast
MCF7 breast = test system: MCF7 breast
SK-OV-3 ovarian = test system: SK-OV-3 ovarian
IGROV1 ovarian = test system: IGROV1 ovarian
HCT-116 colon = test system: HCT-116 colon
NCI/ADR-RES ovarian = test system: NCI/ADR-RES ovarian
UACC-62 melanoma = test system: UACC-62 melanoma
EKVX NSCLC = test system: EKVX NSCLC
SF-539 CNS = test system: SF-539 CNS
OVCAR-8 ovarian = test system: OVCAR-8 ovarian
DU-145 prostate = test system: DU-145 prostate
OVCAR-5 ovarian = test system: OVCAR-5 ovarian
SN12C renal = test system: SN12C renal
UO-31 renal = test system: UO-31 renal
SK-MEL-5 melanoma = test system: SK-MEL-5 melanoma
U251 CNS = test system: U251 CNS
RXF 393 renal = test system: RXF 393 renal
NCI-H226 lung = test system: NCI-H226 lung
786-0 renal = test system: 786-0 renal
A498 renal = test system: A498 renal
T-47D breast = test system: T-47D breast
TK-10 renal = test system: TK-10 renal
UACC-257 melanoma = test system: UACC-257 melanoma
SNB-75 CNS = test system: SNB-75 CNS
A549 NSCLC = test system: A549 NSCLC
M14 melanoma = test system: M14 melanoma
ACHN renal = test system: ACHN renal
HCC-2998 colon = test system: HCC-2998 colon
SK-MEL-2 melanoma = test system: SK-MEL-2 melanoma
MALME-3M melanoma = test system: MALME-3M melanoma
COLO 205 colon = test system: COLO 205 colon
SW-620 colon = test system: SW-620 colon
RPMI-8226 leukemia = test system: RPMI-8226 leukemia
LOX IMVI melanoma = test system: LOX IMVI melanoma
BT-549 breast = test system: BT-549 breast
PC-3 prostate = test system: PC-3 prostate
MDA-MB-435 = test system: MDA-MB-435
HCT-15 colon = test system: HCT-15 colon
HT29 colon = test system: HT29 colon
NCI-H460 lung = test system: NCI-H460 lung
CAKI-1 renal = test system: CAKI-1 renal
OVCAR-3 ovarian = test system: OVCAR-3 ovarian
SR leukemia = test system: SR leukemia
MOLT-4 leukemia = test system: MOLT-4 leukemia
CCRF-CEM leukemia = test system: CCRF-CEM leukemia
HOP-62 NSCLC = test system: HOP-62 NSCLC
HS 578T breast = test system: HS 578T breast

Clc1ccc2c(NC3CCC(NC4CCCCC4)CC3)ccnc2c1 (configuration not stated)
GI50 (KM12 colon): 5.34 µM
TGI (KM12 colon): 18.9 µM
GI50 (NCI-H522 lung): 3.37 µM
TGI (NCI-H522 lung): 14 µM
GI50 (NCI-H23 lung): 7.74 µM
TGI (NCI-H23 lung): 35.9 µM
GI50 (SF-268 CNS): 10.5 µM
TGI (SF-268 CNS): 25.6 µM
GI50 (OVCAR-4 ovarian): 6.48 µM
TGI (OVCAR-4 ovarian): 41 µM
GI50 (SK-MEL-28 melanoma): 1.79 µM
TGI (SK-MEL-28 melanoma): 3.3 µM
GI50 (SF-295 CNS): 1.92 µM
TGI (SF-295 CNS): 5.19 µM
GI50 (SNB-19 CNS): 21.3 µM
TGI (SNB-19 CNS): 89.8 µM
GI50 (HOP-92 NSCLC): 1.2 µM
TGI (HOP-92 NSCLC): 9.74 µM
GI50 (MDA-MB-231 breast): 5.94 µM
TGI (MDA-MB-231 breast): 23.8 µM
GI50 (MCF7 breast): 2.49 µM
TGI (MCF7 breast): 11 µM
GI50 (SK-OV-3 ovarian): 15.9 µM
TGI (SK-OV-3 ovarian): 46.2 µM
GI50 (IGROV1 ovarian): 6.64 µM
TGI (IGROV1 ovarian): 30.8 µM
GI50 (HCT-116 colon): 3.26 µM
TGI (HCT-116 colon): 13.9 µM
GI50 (NCI/ADR-RES ovarian): 8.48 µM
TGI (NCI/ADR-RES ovarian): 30.4 µM
GI50 (UACC-62 melanoma): 3.26 µM
TGI (UACC-62 melanoma): 12.5 µM
GI50 (EKVX NSCLC): 4.55 µM
TGI (EKVX NSCLC): 43 µM
GI50 (SF-539 CNS): 2.03 µM
TGI (SF-539 CNS): 4.13 µM
GI50 (OVCAR-8 ovarian): 4.43 µM
TGI (OVCAR-8 ovarian): 19.3 µM
GI50 (DU-145 prostate): 13.3 µM
TGI (DU-145 prostate): 33.6 µM
GI50 (OVCAR-5 ovarian): 18.5 µM
TGI (OVCAR-5 ovarian): 54.4 µM
GI50 (SN12C renal): 14.7 µM
TGI (SN12C renal): 68.3 µM
GI50 (UO-31 renal): 3.42 µM
TGI (UO-31 renal): 16 µM
GI50 (SK-MEL-5 melanoma): 1.77 µM
TGI (SK-MEL-5 melanoma): 3.2 µM
GI50 (U251 CNS): 3.6 µM
TGI (U251 CNS): 13.3 µM
GI50 (RXF 393 renal): 3.61 µM
TGI (RXF 393 renal): 16.6 µM
GI50 (NCI-H226 lung): 12.8 µM
TGI (NCI-H226 lung): 46.5 µM
GI50 (786-0 renal): 11.9 µM
TGI (786-0 renal): 24.5 µM
GI50 (A498 renal): 4.07 µM
TGI (A498 renal): 27.4 µM
GI50 (T-47D breast): 3.42 µM
TGI (T-47D breast): 17.7 µM
GI50 (TK-10 renal): 2.13 µM
TGI (TK-10 renal): 7.11 µM
GI50 (UACC-257 melanoma): 2.18 µM
TGI (UACC-257 melanoma): 4.17 µM
GI50 (SNB-75 CNS): 4.63 µM
TGI (SNB-75 CNS): 19.4 µM
GI50 (A549 NSCLC): 4.84 µM
TGI (A549 NSCLC): 17.3 µM
GI50 (M14 melanoma): 1.72 µM
TGI (M14 melanoma): 3.19 µM
GI50 (ACHN renal): 4.85 µM
TGI (ACHN renal): 17.1 µM
GI50 (HCC-2998 colon): 2.49 µM
TGI (HCC-2998 colon): 8.13 µM
GI50 (SK-MEL-2 melanoma): 1.97 µM
TGI (SK-MEL-2 melanoma): 3.95 µM
GI50 (MALME-3M melanoma): 2.43 µM
TGI (MALME-3M melanoma): 5.1 µM
GI50 (COLO 205 colon): 1.65 µM
TGI (COLO 205 colon): 3.2 µM
GI50 (SW-620 colon): 1.92 µM
TGI (SW-620 colon): 4.19 µM
GI50 (RPMI-8226 leukemia): 2.26 µM
TGI (RPMI-8226 leukemia): 14.5 µM
GI50 (LOX IMVI melanoma): 1.75 µM
TGI (LOX IMVI melanoma): 4.29 µM
GI50 (BT-549 breast): 12.3 µM
TGI (BT-549 breast): 25.1 µM
GI50 (PC-3 prostate): 11.2 µM
TGI (PC-3 prostate): 43.2 µM
GI50 (MDA-MB-435): 2.11 µM
TGI (MDA-MB-435): 5.51 µM
GI50 (HCT-15 colon): 3.52 µM
TGI (HCT-15 colon): 12.8 µM
GI50 (HT29 colon): 1.57 µM
TGI (HT29 colon): 7.88 µM
GI50 (NCI-H460 lung): 5.27 µM
TGI (NCI-H460 lung): 18.6 µM
GI50 (CAKI-1 renal): 1.81 µM
TGI (CAKI-1 renal): 6.63 µM
GI50 (OVCAR-3 ovarian): 5.34 µM
TGI (OVCAR-3 ovarian): 23.2 µM

C[C@]12CC[C@H]3[C@@H](CC=C4C[C@@H](N5CCCC5)CC[C@@]43C)[C@@H]1C/C(=C\c1ccc([N+](=O)[O-])cc1)[C@@H]2O
TGI (KM12 colon): 33.2 µM
TGI (NCI-H522 lung): 32 µM
TGI (NCI-H23 lung): 37.4 µM
TGI (SF-268 CNS): 40.1 µM
TGI (OVCAR-4 ovarian): 25.4 µM
TGI (SK-MEL-28 melanoma): 28.2 µM
TGI (SF-295 CNS): 96.7 µM
TGI (SNB-19 CNS): 59.2 µM
TGI (HOP-92 NSCLC): 27.7 µM
TGI (MDA-MB-231 breast): 30.2 µM
TGI (MCF7 breast): 68.9 µM
TGI (SK-OV-3 ovarian): 30.1 µM
TGI (IGROV1 ovarian): 28.2 µM
TGI (HCT-116 colon): 29.8 µM
TGI (NCI/ADR-RES ovarian): 43.4 µM
TGI (UACC-62 melanoma): 29.3 µM
TGI (SR leukemia): 3.98 µM
TGI (SF-539 CNS): 32.4 µM
TGI (DU-145 prostate): 34.7 µM
TGI (MOLT-4 leukemia): 4.99 µM
TGI (SN12C renal): 27.5 µM
TGI (UO-31 renal): 28.4 µM
TGI (SK-MEL-5 melanoma): 28.3 µM
TGI (U251 CNS): 25.2 µM
TGI (RXF 393 renal): 57.8 µM
TGI (NCI-H226 lung): 36.2 µM
TGI (786-0 renal): 17.9 µM
TGI (A498 renal): 28.6 µM
TGI (CCRF-CEM leukemia): 14.1 µM
TGI (T-47D breast): 46.9 µM
TGI (TK-10 renal): 35.8 µM
TGI (UACC-257 melanoma): 31.5 µM
TGI (A549 NSCLC): 32.6 µM
TGI (M14 melanoma): 30.2 µM
TGI (ACHN renal): 29.3 µM
TGI (MALME-3M melanoma): 32.1 µM
TGI (COLO 205 colon): 32.6 µM
TGI (SW-620 colon): 36.6 µM
TGI (RPMI-8226 leukemia): 38.5 µM
TGI (LOX IMVI melanoma): 30.9 µM
TGI (BT-549 breast): 26.7 µM
TGI (PC-3 prostate): 88 µM
TGI (MDA-MB-435): 31 µM
TGI (HCT-15 colon): 28.4 µM
TGI (HT29 colon): 27.4 µM
TGI (NCI-H460 lung): > 100 µM
TGI (CAKI-1 renal): 27.6 µM
TGI (HOP-62 NSCLC): 32 µM
TGI (OVCAR-3 ovarian): 31.5 µM
TGI (HS 578T breast): 40.3 µM
